From patent US20260007133A1, “HERBICIDAL COMPOSITION COMPRISING AZINE COMPOUNDS” (BASF SE, priority 2022, published 2026)

What was measured:
Assay type in all cases: in vivo
Abutilon theophrasti = test: Greenhouse pre-emergence (PRE) herbicidal test on ABUTH; conditions: Abutilon theophrasti, pre-emergence
Procedure, shortened: (§1)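 Visual 0–100 rating at 20 days after treatment; 0 = normal growth, 100 = no emergence or complete kill of shoots. Pre-emergent application to seeded pots of loamy sand (~3.0% humus), species-dependent temperature 10-25° C or 20-35° C.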

Euphorbia heterophylla [1] = test: Greenhouse pre-emergence (PRE) herbicidal test on EPHHL; conditions: Euphorbia heterophylla, pre-emergence
Procedure, shortened: as §1

Ipomoea hederacea = test: Greenhouse pre-emergence (PRE) herbicidal test on IPOHE; conditions: Ipomoea hederacea, pre-emergence
From the text: (§2) The culture containers used were plastic pots containing loamy sand with approximately 3.0% of humus as substrate. The seeds of the test plants were sown separately for each species.
(§3) For the pre-emergence treatment, the active compounds, suspended or emulsified in water, were applied directly after sowing by means of finely distributing nozzles. The containers were irrigated gently to promote germination and growth and subsequently covered with transparent plastic hoods until the plants had rooted. This cover caused uniform germination of the test plants unless this was adversely affected by the active compounds.
(§4) Depending on the species, the plants were kept at 10-25° C. and 20-35° C., respectively.
(§5) The test period extended over 2 to 4 weeks. During this time, the plants were tended and their response to the individual treatments was evaluated.
(§6) Evaluation was carried out using a scale from 0 to 100. 100 means no emergence of the plants, or complete destruction of at least the above-ground parts, and 0 means no damage or normal course of growth. A good herbicidal activity is given at values of at least 70, and very good herbicidal activity is given at values of at least 85.
(§7) If not stated differently, the respective components A and B, and if appropriate, C were formulated as a 5% by weight strength emulsion concentrate and, with addition of the amount of solvent system, introduced into the spray liquor used for applying the active compound.
(§8) As indicated application was either post emergent (POST) at the respective growth stage (GS) of the weed (BBCH code), or pre-emergent (PRE).
(§9) Assessment was 20 days after treatment (DAT).

Alopecurus myosuroides = test: Greenhouse pre-emergence (PRE) herbicidal test on ALOMY; conditions: Alopecurus myosuroides, pre-emergence, ALOMY PRE
Procedure, shortened: as §1

Lolium multiflorum = test: Greenhouse pre-emergence (PRE) herbicidal test on LOLMU; conditions: Lolium multiflorum, pre-emergence, LOLMU PRE
Procedure, shortened: as §1

Avena fatua = test: Greenhouse pre-emergence (PRE) herbicidal test on AVEFA
From the text: as §2, §3, §4, §5, §6, §7, §8, §9

Galium aparine = test: Greenhouse pre-emergence (PRE) herbicidal test on GALAP; conditions: Galium aparine, pre-emergence; GALAP PRE, use rate 1200 gai/ha
From the text: as §2, §3, §4, §5, §6, §7, §8, §9

Commelina benghalensis [2] = test: Greenhouse pre-emergence (PRE) herbicidal test on COMBE; conditions: Commelina benghalensis, pre-emergence, COMBE PRE, use rate 1200 gai/ha
Procedure, shortened: as §1

Geranium pusillum [3] = test: Greenhouse pre-emergence (PRE) herbicidal test on GERPU; conditions: Geranium pusillum, pre-emergence, GERPU PRE
From the text: as §2, §3, §4, §5, §6, §7, §8, §9

Geranium pusillum [4] = test: Greenhouse post-emergence (POST) herbicidal test on GERPU; conditions: Geranium pusillum, post-emergence, 480 h, POST, GERPU, use rate 50 gai/ha, 20 DAT
Procedure, shortened: (§10)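 Greenhouse weeds, raised in pots of humus-containing loamy sand, receive a water-based spray of the actives once 3 to 15 cm tall. Damage is rated visually from 0 (none) to 100 (above-ground parts destroyed) 20 days after treatment.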

Commelina benghalensis [5] = test: Greenhouse post-emergence (POST) herbicidal test on COMBE; conditions: 480 h, 20 DAT
Procedure: as §2
(§11) For the post-emergence treatment, the test plants were grown to a plant height of from 3 to 15 cm, depending on the plant habit, and only then treated with the active compounds which had been suspended or emulsified in water. To this end, the test plants were either sown directly, and grown in the same containers, or they were first grown separately as seedlings and transplanted into the test containers a few days prior to treatment.
as §4, §5, §6, §7, §8, §9

Digitaria sanguinalis = test: Greenhouse post-emergence (POST) herbicidal test on DIGSA; conditions: Digitaria sanguinalis, post-emergence, 480 h, POST, DIGSA, use rate 100 gai/ha, 20 DAT
Procedure, shortened: as §10

Echinochloa crus-galli [6] = test: Greenhouse post-emergence (POST) herbicidal test on ECHCG; conditions: Echinochloa crus-galli, post-emergence, 480 h, POST, ECHCG, use rate 100 gai/ha, 20 DAT; read-out: % activity
Procedure, shortened: as §10

Brachiaria decumbens = test: Greenhouse pre-emergence (PRE) herbicidal test on BRADC; conditions: Urochloa decumbens, BRADC PRE, use rate 400 gai/ha
From the text: as §2, §3, §4, §5, §6, §7, §8, §9

Echinochloa crus-galli [7] = test: Greenhouse pre-emergence (PRE) herbicidal test on ECHCG; conditions: Echinochloa crus-galli, pre-emergence, 480 h, PRE, ECHCG, 20 DAT
Euphorbia heterophylla [8] = test: Greenhouse post-emergence (POST) herbicidal test on EPHHL; conditions: Euphorbia heterophylla, post-emergence, 480 h, POST, EPHHL, 20 DAT
Procedure, shortened: as §10

Setaria viridis = test: Greenhouse post-emergence (POST) herbicidal test on SETVI; conditions: 480 h, 20 DAT
Procedure: as §2, §11, §4, §5, §6, §7, §8, §9

[9] = use rate 8 gai/ha, read-out: % activity

In the case of `Nc1c([N+](=O)[O-])ccc(Oc2ccccc2)c1Cl` [Aclonifen, aclonifen], the inhibition at 1200 g/ha (Abutilon theophrasti; ABUTH PRE, use rate 1200 gai/ha) is reported as 35%, the inhibition at 300 g/ha (Euphorbia heterophylla [1]; EPHHL PRE, use rate 300 gai/ha) is reported as 20% and the inhibition at 1200 g/ha (Euphorbia heterophylla [1]; EPHHL PRE, use rate 1200 gai/ha) is reported as 50%. The inhibition at 1200 g/ha (Ipomoea hederacea; IPOHE PRE, use rate 1200 gai/ha) was 0%, the inhibition at 300 g/ha (Alopecurus myosuroides; use rate 300 gai/ha) was 0% and the inhibition at 1200 g/ha (Alopecurus myosuroides; use rate 1200 gai/ha) was 50%. For the same molecule, the inhibition at 300 g/ha (Lolium multiflorum; use rate 300 gai/ha) was 10%, the inhibition at 300 g/ha (Avena fatua; use rate 300 gai/ha) was 0% and the inhibition at 1200 g/ha (Avena fatua; use rate 1200 gai/ha) was 0%. The inhibition at 1200 g/ha (Galium aparine) was 45%, the inhibition at 1200 g/ha (Commelina benghalensis [2]) was 85% and the inhibition at 300 g/ha (Geranium pusillum [3]; use rate 300 gai/ha) was 30%. For the same molecule, the inhibition at 1200 g/ha (Geranium pusillum [3]; use rate 1200 gai/ha) was 65%.
`O=C(Nc1ccc(F)cc1F)c1cccnc1Oc1cccc(C(F)(F)F)c1` [Diflufenican, diflufenican] was tested, and the inhibition at 50 g/ha (Geranium pusillum [4]) was 25%, the inhibition at 50 g/ha (Commelina benghalensis [5]; use rate 50 gai/ha) was 25% and the inhibition at 100 g/ha (Commelina benghalensis [5]; use rate 100 gai/ha) was 20%. It also gave an inhibition at 100 g/ha (Digitaria sanguinalis) of 35% and an inhibition at 100 g/ha (Echinochloa crus-galli [6]) of 40%.
In the case of `CCC(C)(CC)c1cc(NC(=O)c2c(OC)cccc2OC)on1` [Isoxaben, isoxaben], the inhibition at 400 g/ha (Alopecurus myosuroides; use rate 400 gai/ha) is reported as 15%, the inhibition at 100 g/ha (Lolium multiflorum; use rate 100 gai/ha) is reported as 0% and the inhibition at 400 g/ha (Lolium multiflorum; use rate 400 gai/ha) is reported as 0%. For the same molecule, the inhibition at 400 g/ha (Brachiaria decumbens) was 0%, the inhibition at 100 g/ha (Avena fatua; use rate 100 gai/ha) was 0% and the inhibition at 400 g/ha (Avena fatua; use rate 400 gai/ha) was 0%. It also gave an inhibition at 100 g/ha (Geranium pusillum [3]; use rate 100 gai/ha) of 15%.
For `Cn1nc(C(F)(F)F)c(CS(=O)(=O)C2=NOC(C)(C)C2)c1OC(F)F` [Pyroxasulfone, pyroxasulfone], the inhibition at 4 g/ha (Abutilon theophrasti; 480 h, PRE, ABUTH, use rate 4 gai/ha, 20 DAT) was 0%, the inhibition at 8 g/ha (Abutilon theophrasti; 480 h, PRE, ABUTH, use rate 8 gai/ha, 20 DAT, read-out: % activity) was 0% and the inhibition at 16 g/ha (Abutilon theophrasti; 480 h, PRE, ABUTH, use rate 16 gai/ha, 20 DAT) was 10%. The inhibition at 4 g/ha (Euphorbia heterophylla [1]; 480 h, PRE, EPHHL, use rate 4 gai/ha, 20 DAT) was 25%, the inhibition at 8 g/ha (Euphorbia heterophylla [1]; 480 h, PRE, EPHHL, use rate 8 gai/ha, 20 DAT, read-out: % activity) was 20% and the inhibition at 16 g/ha (Euphorbia heterophylla [1]; 480 h, PRE, EPHHL, use rate 16 gai/ha, 20 DAT) was 25%. For the same molecule, the inhibition at 16 g/ha (Ipomoea hederacea; 480 h, PRE, IPOHE, use rate 16 gai/ha, 20 DAT) was 0%, the inhibition at 16 g/ha (Commelina benghalensis [5]; use rate 16 gai/ha) was 45% and the inhibition at 4 g/ha (Echinochloa crus-galli [7]; use rate 4 gai/ha) was 80%. The inhibition at 8 g/ha (Echinochloa crus-galli [7]; [9]) was 80%, the inhibition at 8 g/ha (Euphorbia heterophylla [8]; [9]) was 10% and the inhibition at 16 g/ha (Euphorbia heterophylla [8]; use rate 16 gai/ha) was 25%. The inhibition at 4 g/ha (Setaria viridis; use rate 4 gai/ha) was 30%, the inhibition at 8 g/ha (Setaria viridis; use rate 8 gai/ha) was 40% and the inhibition at 16 g/ha (Setaria viridis; use rate 16 gai/ha) was 80%.
